In patent publication US20260055097A9, “NRF2 PROTEIN DEGRADERS” (Ganymede Oncology, Inc., priority 2022, published 2026):

Legend:
A549 = experiment: Cancer cell viability, A549 (CellTiter-Glo); format: cell-based; settings: Homo sapiens, 72 h, A549 cells, 3 days, read-out: Cellular IC50 (μM) A549
Method in brief: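 A549 and/or LK-2 lung carcinoma cells seeded overnight (20 K/mL A549; 35 K/mL LK-2), then exposed to compound for 3 days. Viability read as CellTiter-Glo luminescence after 15 min lysis; data fitted to curves.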

LK-2 = experiment: Cancer cell viability, LK-2 (CellTiter-Glo); format: cell-based; settings: Homo sapiens, LK-2, 72 h, LK-2 cells, 3 days, read-out: Cellular IC50 (μM) LK-2
Method in brief: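 A549 and LK-2 cells were seeded overnight at 20 K/mL and 35 K/mL respectively. They were then exposed for 3 days to nine three-fold dilutions, typically from 30 µM final. Viability was read as CellTiter-Glo luminescence after a 15 min lysis.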

Row | IC50 (A549) [µM] | IC50 (LK-2) [µM] | Structure (SMILES)
1 | 0.01 | 0.003 | Cc1sc(NC(=O)Cc2ccc(F)c(OCCOCCNc3ccc4c(c3)CN(C3CCC(=O)NC3=O)C4=O)c2)nc1-c1ccc2c(c1)CCN2C(=O)c1cncn1C (stereo not shown) [Cpd. No. 30, 2-(3-(2-(2-((2-(2,6-dioxopiperidin-3-yl)-1-oxoisoindolin-5-yl)amino)ethoxy)ethoxy)-4-fluorophenyl)-N-(5-methyl-4-(1-(1-methyl-1H-imidazole-5-carbonyl)indolin-5-yl)thiazol-2-yl)acetamide]
2 | 0.06 | 0.02 | Cc1sc(NC(=O)Cc2cccc(OCCOCCNc3cccc4c3C(=O)N(C3CCC(=O)NC3=O)C4=O)c2)nc1-c1ccc2c(c1)CCN2C(=O)C1CC1 (stereo not shown) [Cpd. No. 34, N-(4-(1-(cyclopropanecarbonyl)indolin-5-yl)-5-methylthiazol-2-yl)-2-(3-(2-(2-((2-(2,6-dioxopiperidin-3-yl)-1,3-dioxoisoindolin-4-yl)amino)ethoxy)ethoxy)phenyl) acetamide]
